Test results reported in patent publication US8426429B2, “2-amino-quinazoline derivatives useful as inhibitors of β-secretase (BACE)” (Jansssen Pharmaceutica N.V., priority 2004, dated 2013).

Biological target: T1, β-secretase (BACE) (Homo sapiens, UniProt P56817)
T1 construct: purchased Panvera
Assay: BACE FS1 % Inhibition Assay
Format: biochemical
Method in brief: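 Percent inhibition per compound concentration was referenced to vehicle-treated enzyme and no-enzyme wells. Enzyme at a 4 μg/mL working stock plus compound was mixed for 20 min at room temperature before the FS1 substrate (300 μg/mL working stock) was added for a 1 h room-temperature reaction.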

T1 sequence (P56817 46-501): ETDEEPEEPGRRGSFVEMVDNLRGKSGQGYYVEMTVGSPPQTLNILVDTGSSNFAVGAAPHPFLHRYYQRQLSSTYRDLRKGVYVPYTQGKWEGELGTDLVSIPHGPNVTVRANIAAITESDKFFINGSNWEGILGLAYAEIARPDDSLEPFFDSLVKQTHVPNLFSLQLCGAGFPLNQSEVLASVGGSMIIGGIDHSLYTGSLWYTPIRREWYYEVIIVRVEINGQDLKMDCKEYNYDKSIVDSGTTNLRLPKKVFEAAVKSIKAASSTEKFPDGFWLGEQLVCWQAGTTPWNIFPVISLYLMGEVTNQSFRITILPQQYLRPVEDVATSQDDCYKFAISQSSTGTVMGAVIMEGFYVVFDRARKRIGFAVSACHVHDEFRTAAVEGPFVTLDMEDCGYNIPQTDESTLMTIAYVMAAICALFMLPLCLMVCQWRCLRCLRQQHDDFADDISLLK

| % Inhibition (FS) (0.3 μM test compound) [%] | % Inhibition (FS) (1 μM test compound) [%] | % Inhibition (FS) (3 μM test compound) [%] | SMILES |
| --- | --- | --- | --- |
| <30 | <30 | 49 | COc1ccccc1Sc1ccc2c(c1)CN(Cc1cccc(C(=O)N(C)C3CCCCC3)c1)C(N)=N2 [Compound 412] |
| 38 | 64 | 109 | CCC(c1cccc(C(=O)N(C2CCCCC2)C2CCCCC2)c1)N1Cc2cc(Oc3ccccc3)ccc2N=C1N (stereo not drawn) [Compound 419] |
| <30 | <30 | 53 | CN(C(=O)CCC(c1ccc(-c2ccccc2)cc1)N1Cc2cc(Oc3ccccc3)ccc2N=C1N)C1CCCCC1 (stereo not drawn) [Compound 420] |
| <30 | 71 | 111 | Cc1ccc(C(CCC(=O)N(C)C2CCCCC2)N2Cc3cc(Oc4ccccc4)ccc3N=C2N)cc1 (stereo not drawn) [Compound 421] |
| <30 | 26 | 62 | NC1=Nc2ccc(Oc3ccccc3)cc2CN1CCNCC1CCCCC1 [Compound 427] |
| <30 | <30 | <30 | CN(CCN1Cc2cc(Oc3ccccc3)ccc2N=C1N)C1CCCCC1 [Compound 429] |

Second part, the compound before the results:

| SMILES | % Inhibition (FS) (0.3 μM test compound) [%] | % Inhibition (FS) (1 μM test compound) [%] | % Inhibition (FS) (3 μM test compound) [%] |
| --- | --- | --- | --- |
| COc1ccc(Sc2ccc3c(c2)CN(Cc2cccc(C(=O)N(C)C4CCCCC4)c2)C(N)=N3)cc1OC [Compound 411] | <30 | <30 | 55 |
| CSc1ccc(Sc2ccc3c(c2)CN(Cc2cccc(C(=O)N(C)C4CCCCC4)c2)C(N)=N3)cc1 [Compound 413] | <30 | <30 | 53 |
| CN(C(=O)c1cccc(CN2Cc3cc(Sc4cccc5ccccc45)ccc3N=C2N)c1)C1CCCCC1 [Compound 414] | <30 | <30 | 27 |
| CN(C(=O)c1cccc(CN2Cc3cc(Sc4ccc5ccccc5c4)ccc3N=C2N)c1)C1CCCCC1 [Compound 415] | <30 | <30 | 63 |
| CNC(=O)c1ccccc1Sc1ccc2c(c1)CN(Cc1cccc(C(=O)N(C)C3CCCCC3)c1)C(N)=N2 [Compound 416] | <30 | <30 | −3 |
| CC(=O)Nc1ccc(Sc2ccc3c(c2)CN(Cc2cccc(C(=O)N(C)C4CCCCC4)c2)C(N)=N3)cc1 [Compound 417] | <30 | <30 | 78 |
| COc1cccc(Nc2ccc3c(c2)CN(Cc2cccc(C(=O)N(C)C4CCCCC4)c2)C(N)=N3)c1 [Compound 433] | <30 | 33 | 88 |
| COc1ccc(Nc2ccc3c(c2)CN(Cc2cccc(C(=O)N(C)C4CCCCC4)c2)C(N)=N3)cc1 [Compound 434] | <30 | <30 | <30 |
| Cc1cccc(Nc2ccc3c(c2)CN(Cc2cccc(C(=O)N(C)C4CCCCC4)c2)C(N)=N3)c1 [Compound 435] | <30 | <30 | 85 |
| CN(C(=O)c1cccc(CN2Cc3cc(Nc4ccc5ccccc5c4)ccc3N=C2N)c1)C1CCCCC1 [Compound 436] | <30 | 37 | 50 |
